Assays:
[1] = system: lung tissue eosinophilia, mucus secretion and mast cells; assay: Histologic analysis of lung tissue (H&E, PAS, toluidine-blue); format: in vivo, BALB/c mice; conditions: OVA-challenged mice; for lung tissue eosinophilia / eosinophil-rich leukocyte infiltration (H&E): vs DMSO control
Description: Lungs were fixed in 10% neutral formalin, paraffinized, cut into 6-μm sections, and stained with hematoxylin and eosin (H&E) for examining cell infiltration and with periodic acid-Schiff stain (PAS) for measuring mucus production. Quantitative analysis was performed blinded as described below. Mast cells were detected in lung tissue using toluidine-blue staining, and the number of mast cells was counted in paraffin sections. The percentage of degranulated mast cells in the lung was calculated by counting the number of cells with 10% of extrusion of granules.
For both H&E and PAS staining, bronchioles selected for analysis were of similar structure and sizes, with clear morphology presentations and minimum disruptions of the surrounding tissues that could be formed during sectioning. The scoring of inflammatory and globlet cells was performed in 2-4 preparations of each mouse and mean scores were calculated from 4-5 mice. Peribronchial cell counts were performed in a blind manner and scored as known in the art. A five-point scoring system (0-4) was adapted: 0, no cells; 1, a few cells; 2, a ring of cells one cell layer deep; 3, a ring of cells two to four cells deep; 4, a ring of cells more than four cells deep. Goblet cell hyperplasia in the airway epithelium was assessed blind and scored according to the percentage of PAS-positive mucus-producing cells. A five-point (0-4) grading system was as follows: 0, no goblet cells; 1, <25%; 2, 25-50%; 3, 50-75%; 4, >75%. Briefly, to determine the severity of inflammatory cell infiltration, peribronchial cell counts were performed blind based on a 5-point scoring system: 0, no cells; 1, a few cells; 2, a ring of cells 1 cell layer deep; 3, a ring of cells 2-4 cells deep; 4, a ring of cells of >4 cells deep. To determine the extent of mucus production, goblet cell hyperplasia in the airway epithelium was quantified blind using a 5-point grading system: 0, no goblet cells; 1, <25%; 2, 25-50%; 3, 50-75%; 4, >75%. Scoring of inflammatory cells and goblet cells was performed in at least 3 different fields for each lung section. Mean scores were obtained from 4 animals. *Significant difference from DMSO control, P<0.05.

[2] = system: NF-κB signaling pathway in normal human bronchial epithelial cells; assay: TNF-α-induced NF-κB activation in normal human bronchial epithelial cells (immunoblotting, TransAM p65 ELISA); format: cell-based; conditions: 30 μM
Description: (§1) To determine the effects of andrograhpolide on OVA-specific immune responses in lymphocytes, thoracic lymph node cells were grown in bronchial epithelial bulletkit medium (Cambrex BioScience, Walkersvile, Md., USA), supplemented with bovine pituitary extract (2 ml), hydrocortisone (0.5 ml), recombinant human EGF (0.5 ml), epinephrine (0.5 ml), transferrin (0.5 ml), insulin (0.5 ml), retinoic acid (0.5 ml), triiodothyronine (0.5 ml), gentamycin sulfate (50 μg/ml), and amphotericin B (50 ng/ml). The cells were incubated in 5% CO2 incubator at 37° C., and subcultured at 80% to 85% confluency. Cells were exposed to 200 μg/ml OVA for 72 hours. Concanavalin A (Con A, 10 μug/ml) was used as a positive control. Supernatants from parallel triplicate cultures were analyzed for cytokine levels by ELISA. Normal human bronchial epithelial cells were cultured in optimized bronchial epithelial bulletkit medium with supplements (Lonza, Basel, Switzerland). Cells were pretreated with 30 μM andrographolide or vehicle (0.01% DMSO) 4 hours before stimulation with 10 ng/ml tumor necrosis factor (TNF)-α. Total and nuclear proteins, and mRNA were extracted from cells at specified time intervals.
Lung and cell culture nuclear proteins ([…]) were isolated. Lysates were incubated on ice for 30 min before centrifugation (18,000 g for 5 min). The supernatants were collected, and protein concentrations were determined using a BCA protein assay kit. 28 μl of the protein measured were mixed with 7 μl 5× sample buffer and boiled at 95° C. for 5 min. 10% SDS-PAGE gel was set as known in the art. The gel was placed in a Trans-Blot tank (Bio-Rad Laboratories, Hercules, Calif.). 30 μl of the sample mixtures and Pre-stained SDS Page Marker (Bio-Rad Laboratories, Hercules, Calif.) were loaded into respective wells and ran at 100V for 2 hours. The proteins were then transferred to a PVDF membrane using a semi-dry transblotter (ATTO Corp, Tokyo, Japan). The PVDF membrane was blocked with 5% non-fat milk in Tween-20 Tris buffered saline (TTBS) for 2 hours and probed with various primary antibodies in 1% non-fat milk in TTBS (1:2,000 for anti-rabbit antibodies; 1:5,000 for anti-mouse antibodies; 1:10,000 for β-actin) overnight at 4° C. The PVDF was then washed with TTBS for 10 times (2-3 min each), and incubated in HRP- or AP-conjugated anti-mouse or anti-rabbit antibodies for 1 hour. The membrane was again washed with TTBS. For HRP-conjugated antibody, 1 ml each of HRP substrate 1 and substrate 2 were added onto the membrane. For AP-conjugated antibody, 7.5 ml of AP substrates (300 μl AP 25×Buffer, 75 μl Reagent A, 75 μl Reagent B, 7.5 ml water) was added per gel. The data was then developed in the dark on hyperfilms using an ECL reagent. Immunoblots were probed with anti-p65, anti-phospho-p65 (Ser536), and anti-TATA binding protein (TBP, Abcam, Cambridge, UK).
Nuclear proteins were also analyzed for NF-κB DNA-binding activity using the TransAM p65 transcription factor assay kit (Active Motif, Carlsbad, Calif.).

[3] = system: IL-6, IL-8 and RANTES mRNA in normal human bronchial epithelial cells; assay: TNF-α-induced cytokine mRNA expression in normal human bronchial epithelial cells; format: cell-based; conditions: 10 ng/ml TNF-α for 12 hours; 30 μM
Description: as §1
PCR amplifications were then performed using the multiwell thermal cycler on 1 μl cDNA template in a 25 μl reaction volume. The reaction volume contained 10.5 μl nuclease-free water, 0.5 μl forward primer (10 μM), 0.5 μl reverse primer (10 μM) and 12.5 μl 2×PCR master mix (50 units/ml TaqDNA polymerase, 400 μM dATP, 400 μM dGTP, 400 μM dCTP, 400 μM dTTP and 3 mM MgCl2).

[4] = system: OVA-induced AHR; assay: Airway hyper-responsiveness (AHR) to intravenous methacholine; format: in vivo, BALB/c mice; conditions: 1 mg/kg; for OVA-induced airway hyperresponsiveness (AHR) to methacholine: OVA-challenged mice
Description: Mice were anesthetized and tracheotomy was performed as described above. The internal jugular vein was cannulated and connected to a microsyringe for intravenous methacholine administration. Airway resistance (RI) and dynamic compliance (Cdyn) in response to increasing concentrations of mechacholine were recorded using a whole body plethysmograph chamber (Buxco, Sharon, Conn.) and ventilated mechanically by a ventilator via the tube that was inserted into the trachea at a tidal volume of 200 μl/breadth and a breathing rate of 150/min. Airflow and pressure changes were detected by respective transducers, recorded and analyzed by Biosystem XA software (Buxco, Sharon, Conn., USA). Results are expressed as a percentage of the respective basal values in response to phosphate buffered saline (PBS).

[5] = 10 ng/ml TNF-α for 5, 15 and 30 minutes
[6] = OVA-challenged, mechanically ventilated mice

Row | Compound | E-selectin [1] | VCAM-1 [1] | airway mucus production / mucus hypersecretion (PAS) ([1]; 1 mg/kg) | lung tissue eosinophilia / eosinophil-rich leukocyte infiltration (H&E) ([1]; 1 mg/kg) | TNF-α-induced IκBα degradation [2, 5] | TNF-α-induced p65 subunit of NF-κB phosphorylation [2, 5] | TNF-α-induced phosphorylation of IKKβ [2, 5] | IκB phosphorylation ([2]; 10 ng/ml TNF-α) | TNF-α-induced p65 DNA-binding activity ([2]; TNF-α for 30 minutes) | TNF-α-induced p65 nuclear translocation ([2]; TNF-α for 30 minutes) | TNF-α-induced up-regulation of IL-6 mRNA expression [3] | TNF-α-induced up-regulation of IL-8 mRNA expression [3] | TNF-α-induced up-regulation of RANTES mRNA expression [3] | OVA-induced airway hyperresponsiveness (AHR) to methacholine [4] | total degranulating mast cell counts in toluidine-blue staining lung section ([1]; 1 mg/kg, vs DMSO vehicle control) | TNF-α-induced p65 DNA-binding ([2]; 10 ng/ml TNF-α for 5 minutes) | TNF-α-induced p65 nuclear translocation ([2]; 10 ng/ml TNF-α for 5 minutes) | dynamic compliance (Cdyn) in response to methacholine [4, 6] | lung resistance (RI) in response to methacholine [4, 6]
1 | C=C1CC[C@@H]2[C@](C)(CO)[C@H](O)CC[C@@]2(C)[C@@H]1C/C=C1/C(=O)OC[C@H]1O [Andrographolide] | inhibited | inhibited | attenuated | attenuated | blocked | blocked | blocked | inhibition | blocked | blocked | noticeably blocked | noticeably blocked | noticeably blocked | blocked | – | – | – | – | –
2 | C=C1CCC2C(C)(CO)C(O)CCC2(C)C1C=CC1=CCOC1=O (centres unmarked) [DDAG, 14-Deoxy-11,12-didehydroandrographolide] | – | – | significantly halted | markedly diminished | – | – | – | – | – | – | – | – | strongly suppressed | significantly inhibited | drastically decreased | markedly abated | markedly abated | restored | dramatically reduced

From US20120015923A1, “USE OF ANDROGRAPHOLIDE COMPOUNDS FOR TREATING INFLAMMATION AND AIRWAY DISORDERS” (NATIONAL UNIVERSITY OF SINGAPORE, priority 2009, published 2012)
